Data as given in patent US20240238232A1, “COMPOSITIONS AND METHODS FOR THE REDUCTION OR TREATMENT OF INSULIN RESISTANCE AND METABOLIC CONDITIONS” (AXCELLA HEALTH INC., priority 2018, published 2024).
Where “and” joins values, the source holds several entries; their conditions need not be identical. Equal values may be shown once.

System: STAM™ model (NASH)
Experiment: NAFLD activity score (HE staining, Kleiner criteria) in STAM mice, Example 2
Format: in vivo, mouse
Set-up: key to NAFLD Activity Score (NAS), mean / NAFLD Activity Score: raw data: NAS = steatosis (0-3) + inflammation (0-2) + ballooning (0-2); key to NAFLD Activity: Steatosis Score, mean / NAFLD Activity: Steatosis Score: raw data: steatosis grade 0-3 (Kleiner criteria)
Conditions: A-1 1500 mg/kg twice daily, OCA 30 mg/kg once daily
Method: Amino Acid Composition A-1 and Obeticholic acid (6α-ethyl-chenodeoxycholic acid; “OCA”) were tested for their ability to treat NASH in the STAM™ model (Stelic Institute & Co., Tokyo, Japan; Saito K. et al., 2015 Sci Rep 5:12466). Two additional groups of normal C57BL/6 mice fed standard chow and vehicle treated STAM™ mice were included as controls. All animals receiving treatment or vehicle were treated starting at 6 weeks until 9 weeks of age. Compounds were administered via oral gavage, with a dose volume of 10 ml/kg. Amino Acid Composition A-1 was administered twice daily at a dose of 1500 mg/kg, and OCA was administered once daily at a dose of 30 mg/kg.
STAM™ is a model for non-alcoholic steatohepatitis (NASH) and hepatocellular carcinoma (HCC), developed by SMC Laboratories, Inc. and created by the combination of chemical and dietary interventions using C57BL/6 mice (Saito K. et al., 2015 Sci Rep 5:12466). Mice are treated with a low dose of streptozotocin at birth and fed a high fat diet starting at 4 weeks. Evidence of fatty liver is present by 5 weeks, followed by NASH by 7 weeks and fibrosis by 9 weeks.
NASH was induced in 53 male mice by a single subcutaneous injection of 200 μg streptozotocin (STZ, Sigma-Aldrich, USA) solution 2 days after birth and feeding with high fat diet (HFD, 57 kcal % fat, Cat #HFD32, CLEA Japan, Japan) after 4 weeks of age.
Amino Acid Composition A-1, OCA and Vehicle (described below) were administered by oral route in a volume of 10 mL/kg. Amino Acid Composition A-1 was solubilized in deionized water to 150 mg/ml (10 X). OCA (Advanced ChemBlocks Inc.) was resuspended in 0.5% methycellulose in water to 3 mg/ml (10 X). Amino Acid Composition A-1 was administered at a dose of 1500 mg/kg twice daily (9 am and 7 pm). OCA was administered at a dose of 30 mg/kg once daily (9 am).
Liver samples from mice in Group 2 (Vehicle), 3 (Amino Acid Composition A-1) and 4 (OCA) were used for the following assays. For HE staining, sections were cut from paraffin blocks of liver tissue prefixed in Bouin's solution and stained with Lillie-Mayer's Hematoxylin (Muto Pure Chemicals Co., Ltd., Japan) and eosin solution (Wako Pure Chemical Industries). NAFLD Activity score (NAS) was calculated according to the criteria of Kleiner (Kleiner D. E. et al., Hepatology, 2005; 41:1313).
The non-alcoholic fatty liver disease (NAFLD) activity score was assessed via histological analysis and grading of H&E stained liver sections from each animal. This score is the sum of three individual scores that grade the degree of steatosis (0-3), inflammation (0-2), and hepatocyte ballooning (0-2). All tissues were graded using the scoring criteria of Kleiner et al. (Kleiner et al. Hepatology. 2005; 41(6): 1313-21). Data are mean±standard deviation (stdev). […] Both Amino Acid Composition A-1 and OCA were statistically different from vehicle for NAFLD Activity Score when compared using Dunnett's multiple comparisons test (Amino Acid Composition A-1 p=0.0001, OCA p=0.0001).

[1] = STAM mice, oral, 6 to 9 weeks of age

SMILES: CC[C@H]1[C@@H](O)[C@@H]2[C@H](CC[C@]3(C)[C@@H]([C@H](C)CCC(=O)O)CC[C@@H]23)[C@@]2(C)CC[C@@H](O)C[C@@H]12 [OCA, 6α-ethyl-chenodeoxycholic acid]
- NAFLD Activity Score (NAS), mean [1]: 2.9+/−0.74 and 2.9
- NAFLD Activity: Ballooning Score, mean [1]: 0.3+−0.48 and 0.3
- NAFLD Activity: Inflammation Score, mean [1]: 1.8
- NAFLD Activity: Steatosis Score, mean [1]: 0.8
- NAFLD Activity Score: raw data (individual STAM mice): 2 (3×) and 4 (2×) and 3 (5×)
- NAFLD Activity: Ballooning Score: raw data (individual STAM mice): 0 (7×) and 1 (3×)
- NAFLD Activity: Inflammation Score: raw data (individual STAM mice): 1 (4×) and 2 (4×) and 3 (2×)
- NAFLD Activity: Steatosis Score: raw data (individual STAM mice): 1 (8×) and 0 (2×)
